Results published in article PMC7948455, “Novel drug discovery platform for spinocerebellar ataxia, using fluorescence technology targeting β-III-spectrin” (The Journal of Biological Chemistry, 2020).

Columns and labels:
[1] = biological target: T1, ABD-L253P binding to actin (Homo sapiens, UniProt O15020, L253P); assay: F-actin and ABD cosedimentation assay; settings: for Effect on ABD-L253P to actin cosedimentation: 10 μM Hit compound
T1 construct: the β-III-spectrin (human) ABD residues 1 to 284; His-SUMO (cleaved yes); made in house; host or cells: E. coli BL21(DE3), vector pE-SUMOpro; actin from rabbit psoas muscle tissue
Protocol: (§1) Actin was purified from acetone powder derived from the psoas muscle of New Zealand white rabbit (Oryctolagus cuniculus) ([46]). Filamentous (F)-actin was stored for up to 3 days on ice before use in binding assays. Within an hour of the binding assay, the F-actin was clarified at 100,000g at 4 °C for 10 min prior to setting up binding assays. The L253P β-III-spectrin ABD was expressed in E. coli BL21(DE3) (Novagen). The ABD was purified and the His-SUMO tag proteolytically removed, as previously described ([14]), except size-exclusion chromatography was not performed due to the high purity of the ABD protein. Lifeact-mCherry protein was similarly prepared. A Bradford assay was performed to determine clarified F-actin and ABD protein concentrations.
(§2) F-actin and ABD binding assays were performed as previously described ([10]). In brief, binding assays used 1 μM ABD protein, 1 μM F-actin, and 1 to 50 μM compound (as indicated) or DMSO control for a total reaction volume of 60 μl in F-buffer containing 10 mM Tris, pH 7.5, 150 mM NaCl, 0.5 mM ATP, 2 mM MgCl2, and 1 mM DTT. Following 30 min incubation at room temperature (21 °C). F-actin was pelleted using centrifugation at 100,000g at 25 °C for 30 min. Unbound ABD in the supernatant was measured following SDS-PAGE and Coomassie blue staining in accord ([10]). In addition, control cosedimentations assays that lacked actin were performed to test if compounds cause ABD aggregation. F-actin and Lifeact-mCherry binding assays were undertaken with 2 μM Lifeact-mCherry, 30 μM F-actin, and 1 to 50 μM compound (as indicated) or DMSO control for a total reaction volume of 80 μl in F-buffer. For a no-actin binding control, an assay sample with no F-actin was also set up. Binding reactions were allowed to reach equilibrium at room temperature (21 °C) for 30 min, and then F-actin was pelleted by centrifugation at 100,000g at 25 °C for 30 min. The amount of unbound Lifeact-mCherry was sampled by loading 7 μl of spin supernatant on a low-volume black bottom 384-well plate (Greiner). Amount of mCherry was determined by acquiring fluorescence spectrum peak intensity at ∼600 nm using a spectral unmixing plate reader (Fluorescence Innovations, Inc) equipped with a 532 nm laser (Laserglow Technologies, Ontario, Canada) for excitation, 532 nm long-pass filter for emission, and PMT for emission detection. The fraction of Lifeact-mCherry bound to F-actin was determined by subtracting from one the fraction of supernatant fluorescence intensity relative to the no-actin control sample:(3) Lifeactboundfraction=1−Fcompound/DMSO/FNo−actin where Fcontrol/DMSO is the peak mCherry fluorescence of assay samples containing compound or DMSO control, and Fno-actin is the peak mCherry fluorescence of assay samples that contained no F-actin.

[2] = test system: HEK293-6E cells; assay: Trypan blue cell viability assay; format: cell-based
Protocol: HEK293-6E cell viability was measured using trypan blue (0.03%) staining and a Countess Automated Cell counter (Invitrogen). Nontransfected HEK293-6E cells were spun at 100g for 5 min at 21 °C and resuspended in 10 ml of PBS. The centrifugation and resuspension were repeated twice more. Final cell concentration was 1 × 10^6 cells/ml. Cells were incubated with 2% DMSO or 3 to 50 μM compound (as indicated) for 3 h at room temperature (21 °C). After addition of 100 μl of 0.06% trypan blue solution in PBS, 10 μl was loaded on a slide and injected into the cell counter, and cell viability was measured.

[3] = biological target: T2, Lifeact-mCherry binding to actin (Oryctolagus cuniculus, UniProt P68135); assay: F-actin and Lifeact-mCherry cosedimentation assay
T2 construct: from tissue; host or cells: actin: rabbit psoas muscle; Lifeact-mCherry: made in house in E. coli (pE-SUMOpro)
Protocol: as §1, §2

[4] = test system: GFP-ABD-L253P to mCherry nonspecific FRET; assay: Counter-screen FRET assay (GFP-ABD-L253P + mCherry, nonspecific FRET) in HEK293-6E cells; format: cell-based
Description: With a constant amount of GFP-ABD-L253P expressed, increased Lifeact-mCherry expression increases FRET with an exponential plateau to 0.12 (Fig. 2A). To measure the nonspecific component of our FRET readout, we concurrently tested expression of mCherry in place of Lifeact-mCherry. For comparison, the Lifeact-mCherry and mCherry fluorescence intensity values (normalized to 1:1 GFP-ABD:Lifeact-mCherry sample) are plotted on the X-axis for samples transfected with different donor-to-acceptor DNA ratios. […] With the trade-off between high FRET and minimal nonspecific FRET, the donor:acceptor ratio 1:2 was chosen for the experiments that followed (Fig. 2A). […]
At 2 × 10^6 cells/ml, HEK293-6E cells were transfected with GFP-ABD-L253P or GFP-ABD-WT (2.4 μg), Lifeact-mCherry (2.4–16.8 μg), mCherry (1.2–16.8 μg), and/or pTT5 (0.8–17.6 μg), as indicated, using the 293fectin protocol (Thermo Fisher Scientific) with 20 μg total DNA. […] Cell viability and concentration were determined using trypan blue assay and a Countess cell counter (Invitrogen). […]
Time-resolved fluorescence waveforms for each well were fitted based on a one-exponential decay function using least-squares minimization global-analysis software, as detailed previously ([32]). […]

[5] = 10 μM Hit compound, 3 h incubation

T1 sequence (O15020 1-284 L253P): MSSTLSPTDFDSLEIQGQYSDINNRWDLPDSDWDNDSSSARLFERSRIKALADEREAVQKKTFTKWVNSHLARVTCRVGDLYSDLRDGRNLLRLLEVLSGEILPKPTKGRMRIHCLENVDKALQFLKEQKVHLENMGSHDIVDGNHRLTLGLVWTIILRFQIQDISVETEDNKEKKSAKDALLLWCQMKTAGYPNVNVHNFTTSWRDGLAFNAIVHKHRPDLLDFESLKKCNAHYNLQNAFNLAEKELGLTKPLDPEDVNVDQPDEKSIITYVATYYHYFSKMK

Effect on ABD-L253P to actin cosedimentation [1] | Effect on actin-Lifeact cosedimentation ([3]; 10 μM Hit compound) | SMILES | Effect on HEK293-6E cell viability [2, 5] | Effect of Hit compound on counter-screen FRET ([4]; dose response, GFP-ABD-L253P:mCherry 1:2 and 1:4) | Effect on counter-screen FRET readout ([4]; swinholide A 3 μM, tegaserod 50 μM, relative to DMSO) | Effect on ABD-L253P cosedimentation with actin ([1]; 3 μM swinholide A, 50 μM tegaserod, n = 4) | Effect on HEK293-6E cell viability ([2]; 3 μM swinholide A, 50 μM tegaserod, 3 h) | Effect on Lifeact-mCherry cosedimentation with actin ([3]; 3 μM swinholide A, 50 μM tegaserod)
do not significantly alter |  | CC(C)(C)c1ccc(/C=C/C(=O)Nc2ccc3c(c2)OCCO3)cc1 [AMG 9810] | do not significantly alter |  |  |  |  | 
do not significantly alter | decreased | O=C(O)c1cc([N+](=O)[O-])ccc1NCCCc1ccccc1 [NPPB] | do not significantly alter |  |  |  |  | 
do not significantly alter |  | CCOc1nc2cccc(C(=O)O)c2n1Cc1ccc(-c2ccccc2-c2nnn[nH]2)cc1 [candesartan] | do not significantly alter |  |  |  |  | 
 |  | CO[C@H]1C[C@H](CC[C@H](C)[C@H](O)[C@H](C)[C@H]2OC(=O)/C=C/C(C)=C/C[C@H](O)C[C@@H]3C=CC[C@@H](C[C@H](OC)[C@@H](C)[C@@H](O)C[C@@H](O)[C@H](C)[C@@H]([C@@H](C)[C@@H](O)[C@@H](C)CC[C@H]4C[C@H](OC)C[C@H](C)O4)OC(=O)/C=C/C(C)=C/C[C@H](O)C[C@@H]4C=CC[C@@H](C[C@H](OC)[C@@H](C)[C@@H](O)C[C@@H](O)[C@@H]2C)O4)O3)O[C@@H](C)C1 [swinholide A] |  |  | did not significantly alter | ablation | did not significantly alter | reduces

SMILES | Effect on ABD-L253P to actin cosedimentation [1] | Effect on actin-Lifeact cosedimentation ([3]; 10 μM Hit compound) | Effect on HEK293-6E cell viability [2, 5] | Effect of Hit compound on counter-screen FRET ([4]; dose response, GFP-ABD-L253P:mCherry 1:2 and 1:4) | Effect on counter-screen FRET readout ([4]; swinholide A 3 μM, tegaserod 50 μM, relative to DMSO) | Effect on ABD-L253P cosedimentation with actin ([1]; 3 μM swinholide A, 50 μM tegaserod, n = 4) | Effect on HEK293-6E cell viability ([2]; 3 μM swinholide A, 50 μM tegaserod, 3 h) | Effect on Lifeact-mCherry cosedimentation with actin ([3]; 3 μM swinholide A, 50 μM tegaserod)
CCCCCCCC/C=C\CCCCCCCC(=O)NCc1ccc(O)c(OC)c1 [olvanil] | do not significantly alter |  | do not significantly alter | no significant effect |  |  |  | 
